Source: patent US10544150B2, “NK-3 receptor selective antagonist compounds, pharmaceutical composition and methods for use in NK-3 receptors mediated disorders” (Ogeda SA, priority 2010, dated 2020)

Legend:
[1] = tested on: circulating levels of testosterone; assay: Gonad-intact adult male rat, circulating levels of testosterone; assay type: in vivo; settings: gonad-intact male SD rats, single intravenous 20 mg/kg dose, over 420 min (AUC)
Experimental: Plasma testosterone levels are represented as an integrated testosterone response (AUC) over a 420 min period following dosing. […] Membrane suspensions were prepared from these cells. The following radioligand: [^125I]-His-MePhe7-Neurokinin B (PerkinElmer Cat # NEX285) was used in this assay. Binding assays were performed in a […]/1 mM CaCl2/5 mM MgCl2/0.5% BSA/10 μg/ml Saponin, at pH 7.4. Binding assays consisted of 25 μl of membrane suspension (approximately 5 μg protein/well in a 96 well plate), 50 μl of compound or reference ligand (MePhe7-Neurokinin B) at increasing concentrations (diluted in assay buffer) and 0.09 nM [^125I]-His-MePhe7-Neurokinin B. The plate was incubated 60 min at 25° C. in a water bath and then filtered over GF/C filters (Perkin Elmer, 6005174, presoaked in assay buffer without saponine for 2 h at room temperature) with a Filtration unit (Perkin Elmer). The radioactivity retained on the filters was measured by using the TopCount-NXT reader (Packard). […]

[2] = molecular target: human NK-3 receptor (Homo sapiens (Human), UniProt P29371); assay: 3H-SB222200 binding competition assay with human NK-3 receptor; settings: 3H-SB222200 displacement, CHO cell membranes expressing human NK3 receptor; read-out: Ki range
Outline: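 Membranes from CHO cells expressing human NK3 receptor incubated with 5 nM 3H-SB222200 and test compound in HEPES 25 mM/NaCl 0.1M/CaCl2 1 mM/MgCl2 5 mM/BSA 0.5%/saponin 10 μg/ml, pH 7.4. Bound radioligand counted after filtration; Ki calculated, reported in bands (+++ <500 nM to # >5 μM).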

[3] = tested on: circulating levels of luteinizing hormone (LH); assay: Castrated male rat model, circulating levels of luteinizing hormone (LH); assay type: in vivo; settings: castrated male SD rats, single intravenous dose (156 and 144: 10 mg/kg; 71: 15 mg/kg; 114: 20 mg/kg), 60 min post dosing (156 also 120 min), vs. baseline

Chain of human NK-3 receptor (P29371 whole entry): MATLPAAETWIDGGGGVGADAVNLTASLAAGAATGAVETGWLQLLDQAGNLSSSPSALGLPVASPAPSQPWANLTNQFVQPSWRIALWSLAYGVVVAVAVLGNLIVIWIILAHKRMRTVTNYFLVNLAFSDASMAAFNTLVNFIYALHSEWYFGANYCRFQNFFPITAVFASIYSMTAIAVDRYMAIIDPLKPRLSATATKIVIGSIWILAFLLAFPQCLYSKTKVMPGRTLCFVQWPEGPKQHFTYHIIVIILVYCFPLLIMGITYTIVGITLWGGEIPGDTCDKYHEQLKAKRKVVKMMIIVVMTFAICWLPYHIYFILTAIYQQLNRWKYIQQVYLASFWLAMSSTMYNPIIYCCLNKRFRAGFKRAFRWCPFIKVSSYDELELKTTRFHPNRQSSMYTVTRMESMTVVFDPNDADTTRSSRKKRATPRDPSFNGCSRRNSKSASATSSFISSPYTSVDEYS

Ki [2]: < 500 nM
Compound: C[C@@H]1c2nnc(-c3csc(-c4ccc(F)cc4F)n3)n2CCN1C(=O)c1ccc(-c2cccs2)cc1 [Compound 156, (R)-(3-(2-(2,4-difluorophenyl)thiazol-4-yl)-8-methyl-5,6-dihydro-[1,2,4]triazolo[4,3-a]pyrazin-7(8H)-yl)(4-(thiophen-2-yl)phenyl)methanone]
effect on plasma testosterone levels [1]: significantly suppressed plasma testosterone levels | effect on LH serum levels [3]: significantly suppressed GnRH-mediated elevation of LH
